Data taken from patent publication US10538555B2, “Macrocyclic inhibitors of the PD-1/PD-L1 and CD80(B7-1)/PD-L1 protein/protein interactions” (BRISTOL-MYERS SQUIBB COMPANY, priority 2014, dated 2020).
Read-outs that look alike come from different tables or passages of the source. Where a SMILES comes first, the peptide text is derived from it. Bridges are numbered along the chain shown (N, C = ends). [ ]: non-standard residue; d: D form. ξ: configuration not given here. Phe(3,4,5-F3) = N[C@@H](Cc1cc(F)c(F)c(F)c1)C(=O)O; Bta = N[C@@H](Cc1csc2ccccc12)C(=O)O; Hyp = O=C(O)[C@@H]1C[C@@H](O)CN1; NMeF = CN[C@@H](Cc1ccccc1)C(=O)O; NMeNle = CCCC[C@H](NC)C(=O)O; dPip = O=C(O)[C@H]1CCCCN1; hSer = N[C@@H](CCO)C(=O)O; NMeA = CN[C@@H](C)C(=O)O; Abu = CC[C@H](N)C(=O)O; ξC = NC(CS)C(=O)O; Sar = CNCC(=O)O

Molecular target: T1, Human PD-L1/PD-1 (Homo sapiens, UniProt Q9NZQ7)
T1 construct: TVMV protease cleavage site (C); made in house; host or cells: HEK293T cells
T1 sequence (Q9NZQ7 with tags, fused parts or gaps): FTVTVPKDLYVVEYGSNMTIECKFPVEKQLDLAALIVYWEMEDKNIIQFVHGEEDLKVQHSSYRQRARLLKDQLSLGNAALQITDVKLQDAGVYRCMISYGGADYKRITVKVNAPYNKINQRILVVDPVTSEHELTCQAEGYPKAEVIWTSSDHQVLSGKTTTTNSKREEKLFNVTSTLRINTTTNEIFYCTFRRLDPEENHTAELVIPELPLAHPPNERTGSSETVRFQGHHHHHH
Assay: HTRF Human PD-L1/PD-1 binding assay (PD-1-Ig/PD-L1-His)
Conditions: PD-L1-His 10 nM, PD-1-Ig 20 nM
In short: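 HTRF read-out (665/620 nm ratio) after 30 min equilibration with Eu-cryptate anti-Ig mAb (1 nM) and APC anti-His mAb (20 nM). Peptides preincubated 15 min with PD-L1-His (10 nM), then PD-1-Ig (20 nM) added for 15 min.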

[1] = class symbol, read-out: HTRF Human PD-L1/PD-1 Binding Assay IC50 Range

| Compound | IC50 [1] [nM] | IC50 (read-out: HTRF Human PD-L1/PD-1 Binding Assay IC50) [nM] |
| --- | --- | --- |
| CCCC[C@H]1C(=O)N(C)[C@@H](CCCC)C(=O)N[C@@H](CCCNC(=N)N)C(=O)NC(C(=O)NCC(N)=O)CSCC(=O)N[C@@H](Cc2ccc(O)cc2)C(=O)N(C)[C@@H](C)C(=O)N[C@@H](CC(N)=O)C(=O)N2CCC[C@H]2C(=O)N[C@@H](CO)C(=O)N[C@@H](CCO)C(=O)N2C[C@H](O)C[C@H]2C(=O)N[C@@H](Cc2c[nH]c3ccccc23)C(=O)N[C@@H](CCO)C(=O)N[C@@H](Cc2csc3ccccc23)C(=O)N1C (stereo partly drawn) [Example 10050] ({CH2CO}-Y[NMeA]NPS[hSer][Hyp]W[hSer][Bta][NMeNle][NMeNle]R[ξC]G-NH2; thioether N-14) | 1 to 9.9 |  |
| CCCC[C@H]1C(=O)N(C)[C@@H](CCCC)C(=O)N[C@@H](CCCNC(=N)N)C(=O)NC(C(=O)NCC(N)=O)CSCC(=O)N[C@@H](Cc2ccc(O)cc2)C(=O)N(C)[C@@H](C)C(=O)N[C@@H](CC(N)=O)C(=O)N2CCC[C@H]2C(=O)N[C@@H](CO)C(=O)N[C@@H](CCO)C(=O)N2CCC[C@H]2C(=O)N[C@@H](Cc2c[nH]c3ccccc23)C(=O)N[C@@H](CCO)C(=O)N[C@@H](Cc2c[nH]c3ccccc23)C(=O)N1C (stereo partly drawn) [Example 10051] ({CH2CO}-Y[NMeA]NPS[hSer]PW[hSer]W[NMeNle][NMeNle]R[ξC]G-NH2; thioether N-14) | 1 to 9.9 |  |
| CCCC[C@H]1C(=O)N(C)[C@@H](CCCC)C(=O)N[C@@H](CCCNC(=N)N)C(=O)NC(C(=O)NCC(N)=O)CSCC(=O)N[C@@H](Cc2ccc(O)cc2)C(=O)N(C)[C@@H](C)C(=O)N[C@@H](CC(N)=O)C(=O)N2CCC[C@H]2C(=O)N[C@@H](CO)C(=O)N[C@@H](CCO)C(=O)N2C[C@H](O)C[C@H]2C(=O)N[C@@H](Cc2c[nH]c3ccccc23)C(=O)N[C@@H](CCO)C(=O)N[C@@H](Cc2c[nH]c3ccccc23)C(=O)N1C (stereo partly drawn) [Example 10052] ({CH2CO}-Y[NMeA]NPS[hSer][Hyp]W[hSer]W[NMeNle][NMeNle]R[ξC]G-NH2; thioether N-14) | 1 to 9.9 |  |
| CCCC[C@H]1C(=O)N2CCC[C@@H]2C(=O)N[C@@H](CC(=O)O)C(=O)N[C@@H](C)C(=O)N(C)[C@@H](Cc2ccccc2)C(=O)N[C@@H](Cc2ccc(O)cc2)C(=O)N(C)CC(=O)N[C@@H](Cc2c[nH]c3ccccc23)C(=O)N[C@@H](Cc2ccc(O)cc2)C(=O)N[C@@H](CC(C)C)C(=O)N[C@H](C(=O)NCC(N)=O)CSCC(=O)N[C@@H](Cc2cc(F)c(F)c(F)c2)C(=O)N(C)[C@@H](Cc2ccccc2)C(=O)N1C [Example 10053] ({CH2CO}-[Phe(3,4,5-F3)][NMeF][NMeNle][dP]DA[NMeF]Y[Sar]WYLCG-NH2; thioether N-13) | 10 to 99.9 |  |
| CCCC[C@H]1C(=O)N2CCC[C@@H]2C(=O)N[C@@H](CO)C(=O)N[C@@H](C)C(=O)N(C)[C@@H](Cc2ccccc2)C(=O)N[C@@H](Cc2ccc(O)cc2)C(=O)N(C)CC(=O)N[C@@H](Cc2c[nH]c3ccccc23)C(=O)N[C@@H](Cc2ccc(O)cc2)C(=O)N[C@@H](CC(C)C)C(=O)N[C@H](C(=O)NCC(N)=O)CSCC(=O)N[C@@H](Cc2ccccc2)C(=O)N(C)[C@@H](Cc2ccccc2)C(=O)N1C [Example 10054] ({CH2CO}-F[NMeF][NMeNle][dP]SA[NMeF]Y[Sar]WYLCG-NH2; thioether N-13) | 100 to 990 |  |
| CCCC[C@H]1C(=O)N2CCC[C@@H]2C(=O)N[C@@H](CO)C(=O)N[C@@H](C)C(=O)N(C)[C@@H](Cc2ccccc2)C(=O)N[C@@H](Cc2ccc(O)cc2)C(=O)N(C)CC(=O)N[C@@H](Cc2csc3ccccc23)C(=O)N[C@@H](Cc2ccc(O)cc2)C(=O)N[C@@H](CC(C)C)C(=O)N[C@H](C(=O)NCC(N)=O)CSCC(=O)N[C@@H](Cc2ccccc2)C(=O)N(C)[C@@H](Cc2ccccc2)C(=O)N1C [Example 10055] ({CH2CO}-F[NMeF][NMeNle][dP]SA[NMeF]Y[Sar][Bta]YLCG-NH2; thioether N-13) | 100 to 990 |  |
| CCCC[C@H]1C(=O)N2CCC[C@@H]2C(=O)N[C@@H](CO)C(=O)N[C@@H](C)C(=O)N(C)[C@@H](Cc2ccccc2)C(=O)N[C@@H](Cc2ccc(O)cc2)C(=O)N2CCCC[C@@H]2C(=O)N[C@@H](Cc2c[nH]c3ccccc23)C(=O)N[C@@H](Cc2ccc(O)cc2)C(=O)N[C@@H](CC(C)C)C(=O)N[C@H](C(=O)NCC(N)=O)CSCC(=O)N[C@@H](Cc2ccccc2)C(=O)N(C)[C@@H](Cc2ccccc2)C(=O)N1C [Example 10056] ({CH2CO}-F[NMeF][NMeNle][dP]SA[NMeF]Y[dPip]WYLCG-NH2; thioether N-13) | 100 to 990 |  |
| CCCC[C@H]1C(=O)N(C)CC(=O)N[C@@H](CO)C(=O)N[C@@H](C)C(=O)N(C)[C@@H](Cc2ccccc2)C(=O)N[C@@H](Cc2ccc(O)cc2)C(=O)N2CCCC[C@@H]2C(=O)N[C@@H](Cc2c[nH]c3ccccc23)C(=O)N[C@@H](Cc2ccc(O)cc2)C(=O)N[C@@H](CC(C)C)C(=O)N[C@H](C(=O)NCC(N)=O)CSCC(=O)N[C@@H](Cc2ccccc2)C(=O)N(C)[C@@H](Cc2ccccc2)C(=O)N1C [Example 10057] ({CH2CO}-F[NMeF][NMeNle][Sar]SA[NMeF]Y[dPip]WYLCG-NH2; thioether N-13) |  | 215 |
| CCCC[C@H]1C(=O)N2CCC[C@@H]2C(=O)N[C@@H](CO)C(=O)N[C@@H](CC)C(=O)N(C)[C@@H](Cc2ccccc2)C(=O)N[C@@H](Cc2ccc(O)cc2)C(=O)N(C)CC(=O)N[C@@H](Cc2c[nH]c3ccccc23)C(=O)N[C@@H](Cc2ccc(O)cc2)C(=O)N[C@@H](CC(C)C)C(=O)N[C@H](C(=O)NCC(N)=O)CSCC(=O)N[C@@H](Cc2ccccc2)C(=O)N(C)[C@@H](Cc2ccccc2)C(=O)N1C [Example 10058] ({CH2CO}-F[NMeF][NMeNle][dP]S[Abu][NMeF]Y[Sar]WYLCG-NH2; thioether N-13) | 10 to 99.9 |  |
| CCCC[C@H]1C(=O)N2CCC[C@@H]2C(=O)N[C@@H](CO)C(=O)N[C@@H](CC)C(=O)N(C)[C@@H](Cc2ccccc2)C(=O)N[C@@H](Cc2ccc(O)cc2)C(=O)N(C)CC(=O)N[C@@H](Cc2csc3ccccc23)C(=O)N[C@@H](Cc2ccc(O)cc2)C(=O)N[C@@H](CC(C)C)C(=O)N[C@H](C(=O)NCC(N)=O)CSCC(=O)N[C@@H](Cc2ccccc2)C(=O)N(C)[C@@H](Cc2ccccc2)C(=O)N1C [Example 10059] ({CH2CO}-F[NMeF][NMeNle][dP]S[Abu][NMeF]Y[Sar][Bta]YLCG-NH2; thioether N-13) | 10 to 99.9 |  |
| CCCC[C@H]1C(=O)N2CCC[C@@H]2C(=O)N[C@@H](CO)C(=O)N[C@@H](CC)C(=O)N(C)[C@@H](Cc2ccccc2)C(=O)N[C@@H](Cc2ccc(O)cc2)C(=O)N2CCCC[C@@H]2C(=O)N[C@@H](Cc2c[nH]c3ccccc23)C(=O)N[C@@H](Cc2ccc(O)cc2)C(=O)N[C@@H](CC(C)C)C(=O)N[C@H](C(=O)NCC(N)=O)CSCC(=O)N[C@@H](Cc2ccccc2)C(=O)N(C)[C@@H](Cc2ccccc2)C(=O)N1C [Example 10060] ({CH2CO}-F[NMeF][NMeNle][dP]S[Abu][NMeF]Y[dPip]WYLCG-NH2; thioether N-13) | 10 to 99.9 |  |
| CCCC[C@H]1C(=O)N(C)CC(=O)N[C@@H](CO)C(=O)N[C@@H](CC)C(=O)N(C)[C@@H](Cc2ccccc2)C(=O)N[C@@H](Cc2ccc(O)cc2)C(=O)N2CCCC[C@@H]2C(=O)N[C@@H](Cc2c[nH]c3ccccc23)C(=O)N[C@@H](Cc2ccc(O)cc2)C(=O)N[C@@H](CC(C)C)C(=O)N[C@H](C(=O)NCC(N)=O)CSCC(=O)N[C@@H](Cc2ccccc2)C(=O)N(C)[C@@H](Cc2ccccc2)C(=O)N1C [Example 10061] ({CH2CO}-F[NMeF][NMeNle][Sar]S[Abu][NMeF]Y[dPip]WYLCG-NH2; thioether N-13) | 10 to 99.9 |  |
